tested on: HCV replicon, genotype-1a variant with glutamine 30 changed to glutamate in the NS5A protein; test: microbe, parasite or virus in culture; type: cell-based, HCV genotype 1a; conditions: HCV replicon genotype 1a Q30E (Q→E) variant; test compound titrated with an NS5A-targeting compound (BMS-790052 fixed at 200 nM); ranking of synergist activity
Description: The NS5A synergistic inhibitory effect of test compounds can be determined using various amounts of an NS5A-targeting compound with titration of a second compound of interest. […] In one embodiment, the HCV genotype strain can be genotype 1a containing a change at amino acid 30 of the NS5A protein consisting of glutamine to glutamate. The test compound can be chosen from compounds listed above or from others present in the literature.

SMILES	Fold-Synergistic 1a (Q30E)
CC(C)[C@H](NC(=O)C(=O)N1CCC(F)(F)CC1)c1nc(-c2ccc(-c3ccc(-c4c[nH]c([C@@H](NC(=O)C(=O)N5CCC(F)(F)CC5)C(C)C)n4)cc3)cc2)c[nH]1 [Compound W-51]	>100 fold
CC(C)(C)[C@H](NC(=O)C(C)(C)n1cnc(C(F)(F)F)c1)c1nc(-c2ccc(-c3ccc(-c4c[nH]c([C@@H](NC(=O)C(C)(C)n5cnc(C(F)(F)F)c5)C(C)(C)C)n4)cc3)cc2)c[nH]1 [Compound W-150]	>100 fold
COC1CC(C(=O)N[C@H](c2nc(-c3ccc(-c4ccc(-c5c[nH]c([C@@H](NC(=O)C6CC(OC)C6)C(C)(C)C)n5)cc4)cc3)c[nH]2)C(C)(C)C)C1 (stereo partly drawn) [Compound L-54]	>100 fold
CC1([C@H](NC(=O)C2(C3(O)CCC(F)(F)CC3)CC2)c2nc(-c3ccc(-c4ccc(-c5c[nH]c([C@@H](NC(=O)C6(C7(O)CCC(F)(F)CC7)CC6)C6(C)CC6)n5)cc4)cc3)c[nH]2)CC1 [Compound P-147]	>100 fold
CC(C)[C@H](NC(=O)[C@@]1(C)CCC(F)(F)CO1)c1nc(-c2ccc(-c3ccc(-c4c[nH]c([C@@H](NC(=O)[C@@]5(C)CCC(F)(F)CO5)C(C)C)n4)cc3)cc2)c[nH]1 [Compound Y-78]	>100 fold
COc1ccccc1C1OC(=O)C[C@@H]1C(=O)N[C@H](c1nc(-c2ccc(-c3ccc(-c4c[nH]c([C@@H](NC(=O)[C@H]5CC(=O)OC5c5ccccc5OC)C(C)(C)C)n4)cc3)cc2)c[nH]1)C(C)(C)C (stereo partly shown) [Compound S-263]	>10 fold
COC(=O)N[C@@H](C(=O)NC1(c2nc(-c3ccc(-c4ccc(-c5c[nH]c(C6(NC(=O)[C@H](NC(=O)OC)C(C)C)CCCCC6)n5)cc4)cc3)c[nH]2)CCCCC1)C(C)C [Compound N-22]	>10 fold
CCC(C)CC(=O)N1CCC[C@H]1c1ncc(-c2ccc(-c3ccc(-c4cnc([C@@H]5CCCN5C(=O)CC(C)CC)[nH]4)cc3)cc2)[nH]1 (stereo partly shown) [Compound S-172]	>10 fold
O=C(N1CCC[C@H]1c1ncc(-c2ccc(-c3ccc(-c4cnc([C@@H]5CCCN5C(=O)C5(c6ccccc6)CC5)[nH]4)cc3)cc2)[nH]1)C1(c2ccccc2)CC1 [Compound S-159]	<10 fold
CC(C)(C)[C@H](NC(=O)C1CCC2(CC1)CC2)c1nc(-c2ccc(-c3ccc(-c4c[nH]c([C@@H](NC(=O)C5CCC6(CC5)CC6)C(C)(C)C)n4)cc3)cc2)c[nH]1 (stereo partly shown) [Compound N-123]	>100 fold
CC(C)(C)[C@H](Nc1nc(C(F)(F)F)c(Cl)s1)c1nc(-c2ccc(-c3ccc(-c4c[nH]c([C@@H](Nc5nc(C(F)(F)F)c(Cl)s5)C(C)(C)C)n4)cc3)cc2)c[nH]1 [Compound W-180]	<10 fold
CC(C)(C)[C@H](NC(=O)C1(c2ccc(F)cc2)CC1(C)C)c1nc(-c2ccc(-c3ccc(-c4c[nH]c([C@@H](NC(=O)C5(c6ccc(F)cc6)CC5(C)C)C(C)(C)C)n4)cc3)cc2)c[nH]1 (stereo partly shown) [Compound S-285]	>100 fold
C[C@@H]1CCCCN1C(=O)C(C)(C)C(=O)N[C@H](c1nc(-c2ccc(-c3ccc(-c4c[nH]c([C@@H](NC(=O)C(C)(C)C(=O)N5CCCC[C@H]5C)C(C)(C)C)n4)cc3)cc2)c[nH]1)C(C)(C)C [Compound W-148]	>100 fold
CC(C)[C@H](NC(=O)C(C)(C)OCC(F)F)c1nc(-c2ccc(-c3ccc(-c4c[nH]c([C@@H](NC(=O)C(C)(C)OCC(F)F)C(C)C)n4)cc3F)cc2)c[nH]1 [Compound N-98]	>100 fold
O=C(Cc1ccccc1)N1CCC[C@H]1c1ncc(-c2ccc(-c3ccc(-c4cnc([C@@H]5CCCN5C(=O)Cc5ccccc5)[nH]4)cc3)cc2)[nH]1 [Compound S-107]	<10 fold
COC(=O)C1(C(=O)N[C@H](c2nc(-c3ccc(-c4ccc(-c5c[nH]c([C@@H](NC(=O)C6(C(=O)OC)CCCCC6)C(C)(C)C)n5)cc4)cc3)c[nH]2)C(C)(C)C)CCCCC1 [Compound S-273]	>100 fold
